{"source": "the kinase profiling compilation of Christmann-Franck et al. (2016)", "test_in_all_cases": "KINOMEscan competition binding", "conditions_in_all_cases": "compound 10.0 µM", "key": {"PRKACB (human)": {"target": "PRKACB (human) (UniProt P22694)"}, "ACVRL1 (human)": {"target": "ACVRL1 (human) (UniProt P37023)", "sequence (P37023 whole entry, looked up)": "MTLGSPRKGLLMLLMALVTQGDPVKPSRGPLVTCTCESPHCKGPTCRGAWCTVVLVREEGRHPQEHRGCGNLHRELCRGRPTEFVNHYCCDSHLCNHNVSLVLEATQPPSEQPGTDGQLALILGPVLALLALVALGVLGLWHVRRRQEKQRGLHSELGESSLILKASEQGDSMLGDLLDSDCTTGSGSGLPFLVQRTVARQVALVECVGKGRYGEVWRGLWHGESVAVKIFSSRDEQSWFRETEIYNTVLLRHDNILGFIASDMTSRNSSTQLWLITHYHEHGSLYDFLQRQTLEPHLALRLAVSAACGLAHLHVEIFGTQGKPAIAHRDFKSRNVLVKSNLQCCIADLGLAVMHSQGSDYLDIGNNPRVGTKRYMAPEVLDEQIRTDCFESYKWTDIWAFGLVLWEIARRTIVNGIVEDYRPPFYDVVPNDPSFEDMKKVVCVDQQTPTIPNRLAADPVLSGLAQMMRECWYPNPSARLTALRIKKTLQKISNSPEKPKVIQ"}, "FLT1 (human)": {"target": "FLT1 (human) (UniProt P17948)", "sequence (P17948 whole entry, looked up)": "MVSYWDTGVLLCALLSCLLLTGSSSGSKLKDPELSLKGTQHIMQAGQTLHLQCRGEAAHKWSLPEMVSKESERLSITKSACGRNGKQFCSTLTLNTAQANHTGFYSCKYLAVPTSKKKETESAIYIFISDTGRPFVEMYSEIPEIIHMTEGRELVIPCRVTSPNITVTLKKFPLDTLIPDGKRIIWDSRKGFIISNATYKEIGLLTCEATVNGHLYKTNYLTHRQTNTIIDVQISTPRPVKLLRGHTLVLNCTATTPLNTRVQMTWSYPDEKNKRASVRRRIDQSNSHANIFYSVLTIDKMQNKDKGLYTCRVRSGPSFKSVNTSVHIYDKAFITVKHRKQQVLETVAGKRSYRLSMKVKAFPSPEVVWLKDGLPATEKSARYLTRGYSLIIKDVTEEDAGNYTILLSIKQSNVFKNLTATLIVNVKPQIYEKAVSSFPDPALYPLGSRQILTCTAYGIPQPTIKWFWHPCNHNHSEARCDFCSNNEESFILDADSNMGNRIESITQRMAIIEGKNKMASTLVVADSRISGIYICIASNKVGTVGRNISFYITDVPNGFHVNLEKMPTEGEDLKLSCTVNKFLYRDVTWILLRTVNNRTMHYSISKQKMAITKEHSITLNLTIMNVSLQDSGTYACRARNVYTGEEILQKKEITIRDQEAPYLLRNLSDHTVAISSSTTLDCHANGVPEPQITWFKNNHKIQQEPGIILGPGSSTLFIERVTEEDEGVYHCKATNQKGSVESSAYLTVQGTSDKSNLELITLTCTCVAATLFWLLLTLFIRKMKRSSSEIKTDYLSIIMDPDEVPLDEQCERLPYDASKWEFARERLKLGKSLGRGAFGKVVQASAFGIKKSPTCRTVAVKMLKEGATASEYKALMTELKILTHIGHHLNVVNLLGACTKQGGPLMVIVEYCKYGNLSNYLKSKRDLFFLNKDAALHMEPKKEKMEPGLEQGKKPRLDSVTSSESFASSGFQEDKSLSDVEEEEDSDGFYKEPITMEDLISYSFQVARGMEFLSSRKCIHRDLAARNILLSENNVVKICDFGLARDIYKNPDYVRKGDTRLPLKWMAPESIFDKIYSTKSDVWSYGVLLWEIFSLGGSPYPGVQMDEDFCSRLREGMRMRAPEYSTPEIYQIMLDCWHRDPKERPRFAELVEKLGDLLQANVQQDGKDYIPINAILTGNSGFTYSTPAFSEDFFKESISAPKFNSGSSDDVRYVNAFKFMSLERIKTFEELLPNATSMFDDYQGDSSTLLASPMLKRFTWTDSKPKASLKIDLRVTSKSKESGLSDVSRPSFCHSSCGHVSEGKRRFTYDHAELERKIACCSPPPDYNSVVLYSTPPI"}, "NTRK3 (human)": {"target": "NTRK3 (human) (UniProt Q16288)"}, "PRKCQ (human)": {"target": "PRKCQ (human) (UniProt Q04759)"}, "PTK6 (human)": {"target": "PTK6 (human) (UniProt Q13882)", "sequence (Q13882 whole entry, looked up)": "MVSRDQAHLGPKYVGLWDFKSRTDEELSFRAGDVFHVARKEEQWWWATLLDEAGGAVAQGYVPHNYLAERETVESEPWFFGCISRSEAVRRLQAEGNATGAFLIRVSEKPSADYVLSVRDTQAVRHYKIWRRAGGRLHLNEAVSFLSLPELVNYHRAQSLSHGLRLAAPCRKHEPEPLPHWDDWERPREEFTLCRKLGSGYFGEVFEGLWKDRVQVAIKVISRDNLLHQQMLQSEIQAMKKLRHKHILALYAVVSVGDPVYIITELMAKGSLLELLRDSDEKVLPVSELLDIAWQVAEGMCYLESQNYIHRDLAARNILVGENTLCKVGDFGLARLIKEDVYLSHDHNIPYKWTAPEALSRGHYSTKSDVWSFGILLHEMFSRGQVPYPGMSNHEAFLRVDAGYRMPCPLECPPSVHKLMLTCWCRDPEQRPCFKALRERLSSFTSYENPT"}, "CHEK1 (human)": {"target": "CHEK1 (human) (UniProt O14757)", "sequence (O14757 whole entry, looked up)": "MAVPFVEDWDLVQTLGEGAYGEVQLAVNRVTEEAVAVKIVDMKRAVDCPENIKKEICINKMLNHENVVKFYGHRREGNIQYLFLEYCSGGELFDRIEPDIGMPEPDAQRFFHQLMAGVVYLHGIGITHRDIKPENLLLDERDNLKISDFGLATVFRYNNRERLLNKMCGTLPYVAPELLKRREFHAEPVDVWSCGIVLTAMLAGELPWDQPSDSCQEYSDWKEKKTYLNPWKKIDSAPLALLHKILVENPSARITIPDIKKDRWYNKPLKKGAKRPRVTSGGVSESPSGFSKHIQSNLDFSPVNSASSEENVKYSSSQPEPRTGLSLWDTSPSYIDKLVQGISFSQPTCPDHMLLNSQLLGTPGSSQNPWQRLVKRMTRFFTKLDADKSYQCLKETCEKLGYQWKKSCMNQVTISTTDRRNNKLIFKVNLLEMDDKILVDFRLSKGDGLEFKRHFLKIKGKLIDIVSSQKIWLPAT"}, "CDK8 (human)": {"target": "CDK8 (human) (UniProt P49336)"}, "LIMK1 (human)": {"target": "LIMK1 (human) (UniProt P53667)"}, "CSNK1G2 (human)": {"target": "CSNK1G2 (human) (UniProt P78368)"}, "PRKCE (human)": {"target": "PRKCE (human) (UniProt Q02156)"}, "BMX (human)": {"target": "BMX (human) (UniProt P51813)"}, "STK4 (human)": {"target": "STK4 (human) (UniProt Q13043)"}, "PLK1 (human)": {"target": "PLK1 (human) (UniProt P53350)"}, "MAPK11 (human)": {"target": "MAPK11 (human) (UniProt Q15759)"}, "LTK (human)": {"target": "LTK (human) (UniProt P29376)"}, "RPS6KA1 KD1 (human)": {"target": "RPS6KA1 KD1 (human) (UniProt Q15418)"}, "FES (human)": {"target": "FES (human) (UniProt P07332)"}, "CSK (human)": {"target": "CSK (human) (UniProt P41240)"}, "MAP3K4 (human)": {"target": "MAP3K4 (human) (UniProt Q9Y6R4)"}, "MAP2K6 (human)": {"target": "MAP2K6 (human) (UniProt P52564)"}, "CDK15 (human)": {"target": "CDK15 (human) (UniProt Q96Q40)"}, "PIK3CB (human)": {"target": "PIK3CB (human) (UniProt P42338)"}, "SRPK1 (human)": {"target": "SRPK1 (human) (UniProt Q96SB4)"}, "LCK (human)": {"target": "LCK (human) (UniProt P06239)", "sequence (P06239 whole entry, looked up)": "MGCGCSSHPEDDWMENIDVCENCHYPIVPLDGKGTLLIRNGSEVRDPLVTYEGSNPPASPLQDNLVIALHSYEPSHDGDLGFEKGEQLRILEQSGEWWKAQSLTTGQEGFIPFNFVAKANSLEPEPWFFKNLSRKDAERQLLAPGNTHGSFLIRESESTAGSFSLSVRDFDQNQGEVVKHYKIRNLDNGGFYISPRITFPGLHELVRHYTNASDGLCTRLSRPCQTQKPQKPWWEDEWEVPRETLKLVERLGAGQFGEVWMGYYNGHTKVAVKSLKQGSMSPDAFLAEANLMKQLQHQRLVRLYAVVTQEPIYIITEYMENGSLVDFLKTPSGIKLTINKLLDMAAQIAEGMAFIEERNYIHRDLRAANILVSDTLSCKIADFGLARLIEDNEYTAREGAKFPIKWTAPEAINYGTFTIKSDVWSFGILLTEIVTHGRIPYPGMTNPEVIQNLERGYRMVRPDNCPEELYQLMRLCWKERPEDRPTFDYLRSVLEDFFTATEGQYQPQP"}, "CDK2 (human)": {"target": "CDK2 (human) (UniProt P24941)"}, "PHKG1 (human)": {"target": "PHKG1 (human) (UniProt Q16816)"}, "ERBB4 (human)": {"target": "ERBB4 (human) (UniProt Q15303)"}, "ABL1 (human)": {"target": "ABL1 (human) (UniProt P00519)"}, "RPS6KA4 KD1 (human)": {"target": "RPS6KA4 KD1 (human) (UniProt O75676)"}, "CAMK1G (human)": {"target": "CAMK1G (human) (UniProt Q96NX5)"}, "FYN (human)": {"target": "FYN (human) (UniProt P06241)", "sequence (P06241 whole entry, looked up)": "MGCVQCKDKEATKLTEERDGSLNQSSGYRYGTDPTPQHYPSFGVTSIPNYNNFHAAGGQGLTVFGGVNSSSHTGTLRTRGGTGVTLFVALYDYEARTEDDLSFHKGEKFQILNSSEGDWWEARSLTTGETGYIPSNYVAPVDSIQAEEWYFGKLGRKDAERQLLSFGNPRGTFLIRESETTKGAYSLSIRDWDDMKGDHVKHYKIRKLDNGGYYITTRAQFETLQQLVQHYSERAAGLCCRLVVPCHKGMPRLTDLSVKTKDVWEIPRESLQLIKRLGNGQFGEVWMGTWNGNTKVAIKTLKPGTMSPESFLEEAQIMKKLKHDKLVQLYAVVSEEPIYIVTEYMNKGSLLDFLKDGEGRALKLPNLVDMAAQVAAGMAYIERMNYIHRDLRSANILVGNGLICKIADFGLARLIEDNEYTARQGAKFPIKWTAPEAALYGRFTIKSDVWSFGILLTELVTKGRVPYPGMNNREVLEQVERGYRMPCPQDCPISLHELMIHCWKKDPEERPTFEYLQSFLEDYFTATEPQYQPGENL"}, "TGFBR1 (human)": {"target": "TGFBR1 (human) (UniProt P36897)"}, "MAP3K3 (human)": {"target": "MAP3K3 (human) (UniProt Q99759)", "sequence (Q99759 whole entry, looked up)": "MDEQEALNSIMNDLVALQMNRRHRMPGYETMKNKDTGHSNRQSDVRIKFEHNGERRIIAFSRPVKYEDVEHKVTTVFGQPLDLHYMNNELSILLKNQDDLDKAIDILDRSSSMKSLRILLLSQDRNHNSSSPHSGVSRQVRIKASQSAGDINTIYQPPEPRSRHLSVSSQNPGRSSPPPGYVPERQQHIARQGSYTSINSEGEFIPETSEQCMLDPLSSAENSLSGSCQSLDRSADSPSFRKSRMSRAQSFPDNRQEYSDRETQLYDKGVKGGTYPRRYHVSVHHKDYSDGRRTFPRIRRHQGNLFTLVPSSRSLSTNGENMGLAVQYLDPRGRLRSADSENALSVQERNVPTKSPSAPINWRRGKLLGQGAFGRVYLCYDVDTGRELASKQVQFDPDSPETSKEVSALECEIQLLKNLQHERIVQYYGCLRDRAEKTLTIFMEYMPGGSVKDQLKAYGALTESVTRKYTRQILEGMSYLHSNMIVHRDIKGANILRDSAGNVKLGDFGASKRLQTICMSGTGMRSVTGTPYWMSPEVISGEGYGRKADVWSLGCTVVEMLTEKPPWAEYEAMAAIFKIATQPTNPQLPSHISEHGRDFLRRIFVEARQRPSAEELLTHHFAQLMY"}, "SRMS (human)": {"target": "SRMS (human) (UniProt Q9H3Y6)"}, "MERTK (human)": {"target": "MERTK (human) (UniProt Q12866)"}, "NUAK1 (human)": {"target": "NUAK1 (human) (UniProt O60285)"}, "SIK2 (human)": {"target": "SIK2 (human) (UniProt Q9H0K1)"}, "STK32C (human)": {"target": "STK32C (human) (UniProt Q86UX6)"}, "RIPK1 (human)": {"target": "RIPK1 (human) (UniProt Q13546)"}, "CDK14 (human)": {"target": "CDK14 (human) (UniProt O94921)", "sequence (O94921 whole entry, looked up)": "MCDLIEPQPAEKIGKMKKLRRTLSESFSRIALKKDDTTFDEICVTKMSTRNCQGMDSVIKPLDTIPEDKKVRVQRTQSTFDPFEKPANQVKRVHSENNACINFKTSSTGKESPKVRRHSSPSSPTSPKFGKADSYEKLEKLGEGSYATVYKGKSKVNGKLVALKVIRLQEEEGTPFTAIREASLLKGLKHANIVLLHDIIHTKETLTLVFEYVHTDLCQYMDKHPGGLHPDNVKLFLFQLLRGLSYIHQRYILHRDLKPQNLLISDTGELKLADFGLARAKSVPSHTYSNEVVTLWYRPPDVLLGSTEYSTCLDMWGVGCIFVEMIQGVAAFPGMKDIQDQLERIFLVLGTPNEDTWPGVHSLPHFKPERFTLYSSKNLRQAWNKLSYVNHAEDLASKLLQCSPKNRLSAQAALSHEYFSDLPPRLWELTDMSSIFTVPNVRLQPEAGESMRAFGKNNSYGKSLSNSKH"}, "TESK1 (human)": {"target": "TESK1 (human) (UniProt Q15569)"}}}
{"smiles": "CN1C(=O)c2ccccc2N(C)c2nc(Nc3ccc(N4CCC(O)CC4)cc3)ncc21", "values": [{"measurement": "kinase still bound, per cent of control", "setting": "PRKACB (human)", "result": 100, "unit": "%"}, {"measurement": "kinase still bound, per cent of control", "setting": "ACVRL1 (human)", "result": 100, "unit": "%"}, {"measurement": "kinase still bound, per cent of control", "setting": "FLT1 (human)", "result": 94, "unit": "%"}, {"measurement": "kinase still bound, per cent of control", "setting": "NTRK3 (human)", "result": 82, "unit": "%"}, {"measurement": "kinase still bound, per cent of control", "setting": "PRKCQ (human)", "result": 92, "unit": "%"}, {"measurement": "kinase still bound, per cent of control", "setting": "PTK6 (human)", "result": 86, "unit": "%"}, {"measurement": "kinase still bound, per cent of control", "setting": "CHEK1 (human)", "result": 76, "unit": "%"}, {"measurement": "kinase still bound, per cent of control", "setting": "CDK8 (human)", "result": 100, "unit": "%"}, {"measurement": "kinase still bound, per cent of control", "setting": "LIMK1 (human)", "result": 97, "unit": "%"}, {"measurement": "kinase still bound, per cent of control", "setting": "CSNK1G2 (human)", "result": 80, "unit": "%"}, {"measurement": "kinase still bound, per cent of control", "setting": "PRKCE (human)", "result": 99, "unit": "%"}, {"measurement": "kinase still bound, per cent of control", "setting": "BMX (human)", "result": 89, "unit": "%"}, {"measurement": "kinase still bound, per cent of control", "setting": "STK4 (human)", "result": 80, "unit": "%"}, {"measurement": "kinase still bound, per cent of control", "setting": "PLK1 (human)", "result": 50, "unit": "%"}, {"measurement": "kinase still bound, per cent of control", "setting": "MAPK11 (human)", "result": 88, "unit": "%"}, {"measurement": "kinase still bound, per cent of control", "setting": "LTK (human)", "result": 100, "unit": "%"}, {"measurement": "kinase still bound, per cent of control", "setting": "RPS6KA1 KD1 (human)", "result": 66, "unit": "%"}, {"measurement": "kinase still bound, per cent of control", "setting": "FES (human)", "result": 100, "unit": "%"}, {"measurement": "kinase still bound, per cent of control", "setting": "CSK (human)", "result": 91, "unit": "%"}, {"measurement": "kinase still bound, per cent of control", "setting": "MAP3K4 (human)", "result": 100, "unit": "%"}, {"measurement": "kinase still bound, per cent of control", "setting": "MAP2K6 (human)", "result": 100, "unit": "%"}, {"measurement": "kinase still bound, per cent of control", "setting": "CDK15 (human)", "result": 100, "unit": "%"}, {"measurement": "kinase still bound, per cent of control", "setting": "PIK3CB (human)", "result": 94, "unit": "%"}, {"measurement": "kinase still bound, per cent of control", "setting": "SRPK1 (human)", "result": 100, "unit": "%"}, {"measurement": "kinase still bound, per cent of control", "setting": "LCK (human)", "result": 50, "unit": "%"}, {"measurement": "kinase still bound, per cent of control", "setting": "CDK2 (human)", "result": 91, "unit": "%"}, {"measurement": "kinase still bound, per cent of control", "setting": "PHKG1 (human)", "result": 95, "unit": "%"}, {"measurement": "kinase still bound, per cent of control", "setting": "ERBB4 (human)", "result": 100, "unit": "%"}, {"measurement": "kinase still bound, per cent of control", "setting": "ABL1 (human)", "result": 3.2, "unit": "%"}, {"measurement": "kinase still bound, per cent of control", "setting": "RPS6KA4 KD1 (human)", "result": 100, "unit": "%"}, {"measurement": "kinase still bound, per cent of control", "setting": "CAMK1G (human)", "result": 91, "unit": "%"}, {"measurement": "kinase still bound, per cent of control", "setting": "FYN (human)", "result": 35, "unit": "%"}, {"measurement": "kinase still bound, per cent of control", "setting": "TGFBR1 (human)", "result": 73, "unit": "%"}, {"measurement": "kinase still bound, per cent of control", "setting": "MAP3K3 (human)", "result": 0.35, "unit": "%"}, {"measurement": "kinase still bound, per cent of control", "setting": "SRMS (human)", "result": 87, "unit": "%"}, {"measurement": "kinase still bound, per cent of control", "setting": "MERTK (human)", "result": 100, "unit": "%"}, {"measurement": "kinase still bound, per cent of control", "setting": "NUAK1 (human)", "result": 17, "unit": "%"}, {"measurement": "kinase still bound, per cent of control", "setting": "SIK2 (human)", "result": 61, "unit": "%"}, {"measurement": "kinase still bound, per cent of control", "setting": "STK32C (human)", "result": 100, "unit": "%"}, {"measurement": "kinase still bound, per cent of control", "setting": "RIPK1 (human)", "result": 100, "unit": "%"}, {"measurement": "kinase still bound, per cent of control", "setting": "CDK14 (human)", "result": 100, "unit": "%"}, {"measurement": "kinase still bound, per cent of control", "setting": "TESK1 (human)", "result": 97, "unit": "%"}]}
